# Legend:
# Assay type in all cases: cell-based, human
# [1] = test system: FoxP3; experiment: Intracellular staining of transcription factors in PBMCs (FACS), FoxP3; settings: PBMC, single HMOs and total pool of HMO; method not given
# Procedure: (§1) For intracellular staining PBMCs from 3 donors were incubated with the mentioned HMOs (0.5 g/1) for 24 h prior to analysis. In a 96-wells plate 5*10^5 PBMCs were pelleted at 300 g for 4 minutes. Subsequently, the cells were blocked using 25 μL of blocking buffer (Human BD Fc Block™,BD) and incubated for 10 minutes at room temperature. Then, 25 μL of anti-CD4 FITC (555346, BD) and anti-CD3 APC (555335, BD) were added to each test. The cells were incubated 30 minutes on ice. After the cells were washed twice with Stain Buffer (FBS) (554657, BD) an intracellular staining for the transcription factors was performed by the Transcription Factor Buffer Set (562574, BD). FoxP3 PE (560852, BD) and RORγT PE (563081, BD) were used. Cells were analyzed with FACS (Easycyte 8HT). Expression of FoxP3 and RORγT was analyzed in the CD4-positive cells.
# PBMC's from 3 donors were isolated from a buffy coat using Sepmate tubes. The cells were diluted to a concentration of 1*10^7 cells per ml. The PBMC's were seeded in 6 wells plates and treated with 0.5 g/l of 2′-FL or a mix of LNFP-III with LSTa 1:1 w/v in PBMC culturing medium for 24 h. Cells incubated with no HMOs were used as control. For Fluorescence Activated Cell Sorting (FACS), 5*10^5 PBMCs were pelleted at 300 g for 4 minutes in a 96-well plate.
# as §1, with “Subsequently,” for “For intracellular staining PBMCs from 3 donors were incubated with the mentioned HMOs (0.5 g/1) for 24 h prior to analysis. In a 96-wells plate 5*10^5 PBMCs were pelleted at 300 g for 4 minutes. Subsequently,”, “8HT).” for “8HT). Expression of FoxP3 and RORγT was analyzed in the CD4-positive cells.”
# [2] = test system: Interleukin-10 (IL-10); experiment: Cytokine analysis (Cytometric Bead Array) in PBMC supernatant, IL-10; settings: for effect on the expression of IL10 (summary statement): PBMC, single HMOs and total pool of HMO, method not given
# Procedure: BD™ Cytometric Bead Array (CBA) Human Th1/Th2/Th17 Cytokine Kit (560484, BD) was used to measure Interleukin-6 (IL-6) and Interleukin-10 (IL-10) protein levels in supernatant following the manufacturer's instructions. After acquiring samples on the FACS (Easycyte 8HT), the FCAP Array™ software was used to determine cytokine concentrations.
# PBMC's from 3 donors were isolated from a buffy coat using Sepmate tubes. The cells were diluted to a concentration of 1*10^7 cells per ml. The PBMC's were seeded in 6 wells plates and treated with 0.5 g/l of 2′-FL or a mix of LNFP-III with LSTa 1:1 w/v in PBMC culturing medium for 24 h. Cells incubated with no HMOs were used as control. The supernatants from these cultures were collected and BD™ Cytometric Bead Array (CBA) Human Th1/Th2/Th17 Cytokine Kit (560484, BD) was used to measure Interleukin-6 (IL-6) and Interleukin-10 (IL-10) protein levels in supernatant following the manufacturer's instructions. After acquiring samples on the FACS (Easycyte 8HT), the FCAP Array™ software was used to determine cytokine concentrations.
# [3] = test system: Interleukin-6 (IL-6); experiment: Cytokine analysis (Cytometric Bead Array) in PBMC supernatant, IL-6; settings: PBMCs of 3 donors, 0.5 g/l, 24 h, FIG. 8, compared with control
# Procedure: BDTM Cytometric Bead Array (CBA) Human Th1/Th2/Th17 Cytokine Kit (560484, BD) was used to measure Interleukin-6 (IL-6) and Interleukin-10 (IL-10) protein levels in supernatant following the manufacturer's instructions. After acquiring samples on the FACS (Easycyte 8HT), the FCAP ArrayTM software was used to determine cytokine concentrations. PBMC's from 3 donors were isolated from a buffy coat using Sepmate tubes. The cells were diluted to a concentration of 1*10^7 cells per ml. The PBMC's were seeded in 6 wells plates and treated with 0.5 g/l of 2'-FL or a mix of […] in PBMC culturing medium for 24 h. Cells incubated with no HMOs were used as control. The supernatants from these cultures were collected and BDTM Cytometric Bead Array (CBA) Human Th1/Th2/Th17 Cytokine Kit (560484, BD) was used to measure Interleukin-6 (IL-6) and Interleukin-10 (IL-10) protein levels in supernatant following the manufacturer's instructions. After acquiring samples on the FACS (Easycyte 8HT), the FCAP ArrayTM software was used to determine cytokine concentrations.
# [4] = test system: CD25 (IL2RA); experiment: RNA sequencing in PBMCs, CD25 (IL2RA) gene expression; settings: PBMCs of 3 donors, 0.5 g/l HMO, 6 h, Polymyxin B as control, FIG. 2
# Procedure: (§2) Peripheral blood mononuclear cells (PBMCs) were isolated from a buffy coat using Sepmate tubes. The cells were diluted to a concentration of 1*10^7 cells per ml. The PBMC's were seeded in 6 wells plates and treated with 0.5 g/l of each HMO in PBMC culturing medium for 6 h prior to RNA isolation. Each human milk oligosaccharide (HMO) was mixed with 100 ug/ml (microgram/milliliter) final concentration of Polymyxin B to ensure neutralization of possible endotoxin contamination of HMOs, while equal amounts of Polymyxin B were used as a control. As a positive control HMOs isolated from pooled human milk sample were used. Single HMOs were purchased from BOC Sciences.
# (§3) 2500 ng RNA, isolated from PBMCs of 3 donors, was translated into cDNA, using the quantitect reverse transcription kit (Qiagen). RNA sequencing and analysis was performed by use of the NOVOGENE platform according to standard procedures. Gene expression is shown for CSF3, CD25 (IL2RA), IL12B and IL23A as regulated by the pool of HMOs as isolated from human milk (pHMOs), LNFP-III, LSTa and DSLNT.
# as §2, with “PBMC's from 3 donors” for “Peripheral blood mononuclear cells (PBMCs)”, “HMO” for “human milk oligosaccharide (HMO)”, “ug/ml” for “ug/ml (microgram/milliliter)”
# as §3, with “from PBMCs,” for “from PBMCs of 3 donors,”, “expression was” for “expression is”
# [5] = test system: IL12B; experiment: RNA sequencing in PBMCs, IL12B gene expression; settings: PBMCs of 3 donors, 0.5 g/l HMO, 6 h, Polymyxin B as control, FIG. 3
# Procedure: as §2, §3
# as §2, with “PBMC's from 3 donors” for “Peripheral blood mononuclear cells (PBMCs)”, “HMO” for “human milk oligosaccharide (HMO)”, “ug/ml” for “ug/ml (microgram/milliliter)”
# as §3, with “from PBMCs,” for “from PBMCs of 3 donors,”, “expression was” for “expression is”
# [6] = test system: IL23A; experiment: RNA sequencing in PBMCs, IL23A gene expression; settings: PBMCs of 3 donors, 0.5 g/l HMO, 6 h, Polymyxin B as control, FIG. 4
# Procedure: as §2, §3
# (§4) PBMC's from 3 donors were isolated from a buffy coat using Sepmate tubes. The cells were diluted to a concentration of 1*10^7 cells per ml. […]
# (§5) 2500 ng RNA, isolated from PBMCs, was translated into cDNA, using the quantitect reverse transcription kit (Qiagen). […]
# [7] = test system: CSF3; experiment: RNA sequencing in PBMCs, CSF3 gene expression; settings: PBMCs of 3 donors, 0.5 g/l HMO, 6 h, Polymyxin B as control, FIG. 1
# Procedure: as §2, §3, §4, §5
Molecule,effect on the expression of FoxP3 (summary statement) [1],effect on the expression of IL10 (summary statement) [2],"expression of IL10 (protein level in supernatant) ([2]; PBMCs of 3 donors, 0.5 g/l, 24 h, FIG. 7, mixture value is average)","expression of IL6, result in words [3]",expression of CD25 [4],expression of IL12B [5],expression of IL23A [6],relative expression of CSF3 [7]
"2′-fucosyllactose [2′FL, reference compound]",no effect,no effect,less than 3 pg/ml,no expression,–,–,–,–
"CC(=O)N[C@H]1[C@H](O[C@H]2[C@@H](O)[C@@H](CO)O[C@@H](O[C@H]3[C@H](O)[C@@H](O)C(O)O[C@@H]3CO)[C@@H]2O)O[C@H](CO)[C@@H](O)[C@@H]1O[C@@H]1O[C@H](CO)[C@H](O)[C@H](O[C@]2(C(=O)O)C[C@H](O)[C@@H](NC(C)=O)[C@H]([C@H](O)[C@H](O)CO)O2)[C@H]1O (stereo partly drawn) [LSTa, α-Neu5Ac-(2→3)-β-D-Gal-(1→3)-β-D-GlcNAc-(1→3)-β-D-Gal-(1→4)-Glc]",increase,increase,–,–,around 6.3,about 3,about 4.4,–
α-Neu5Ac-(2→3)-β-D-Gal-(1→3)-[α-Neu5Ac-(2→6)]-β-D-GlcNAc-(1→3)-β-D-Gal-(1→4)-Glc [DSLNT],–,–,–,–,around 5.5,about 2.5,–,around 4
β-D-Gal-(1→4)-[α-L-Fuc-(1→3)]-β-D-GlcNAc-(1→3)-β-D-Gal-(1→4)-D-Glc [LNFP III],increase,increase,–,–,around 5.8,about 2.5,about 4.3,–
